System: Bip mRNA
Assay: qRT-PCR of Bip mRNA in Tm-treated INS-1 cells
Format: cell-based, rat
Details: Tm 0.1 μg/mL co-treatment, 8 h
Protocol: INS-1 cells were treated with or without Tm (0.1 μg/mL) in the presence of 13d or DMSO for 8 h. Bip (A) and GRP94 (B) mRNA levels were analyzed by qRT-PCR. Relative mRNA levels were normalized against the housekeeping gene Cyclophilin A using the comparative CT method. The results are the means of 3 replicate wells and representative of 3 independent experiments. ** P<0.01 compared with Tm treatment alone. Error bars indicate SD.
We then investigated the effects of 13d on the activation of ATF6 in β-cells under ER stress. Activated ATF6 acts as a homodimer or as an ATF6-XBP1s heterodimer to control the up-regulation of select UPR target genes including the chaperone proteins BiP and GRP94. Therefore, these two chaperone proteins were evaluated in the INS-1 cells in the presence of Tm.
INS-1 cells were seeded at 4×10^5 cells/well in 6-well plates and treated with compounds for the indicated times. Total RNA was extracted using TRIzol reagent (Invitrogen, Carlsbad, Calif.) according to the manufacturer's protocol, and 2 μg of total RNA was reverse transcribed using a Superscript kit (Invitrogen). […] Relative mRNA levels were normalized against the housekeeping gene Cyclophilin A and were determined by ΔΔCt calculated from the difference in ΔCt values between the target gene and Cyclophilin A with and without treatment, based on comparative CT (cycle threshold) method. […]

## O=C(NCc1ccc(C(F)(F)F)cc1)c1cccc(CN2CCCCC2)c1 [Compound 13d, N-(4-trifluoromethylphenmethyl)-3-(N-piperidinyl)methyl benzamide]
  Tm-induced up-regulation of Bip mRNA: almost completely reversed
